Data from BindingDB's records for doi:10.1016/j.bioorg.2016.10.003 (Indian Institute of Technology (Banaras Hindu University), 2016).

target: T1, Prostaglandin G/H synthase 1 (Ovis aries, UniProt P05979); test: In vitro COX Inhibition Assay
T1 sequence (P05979 whole entry): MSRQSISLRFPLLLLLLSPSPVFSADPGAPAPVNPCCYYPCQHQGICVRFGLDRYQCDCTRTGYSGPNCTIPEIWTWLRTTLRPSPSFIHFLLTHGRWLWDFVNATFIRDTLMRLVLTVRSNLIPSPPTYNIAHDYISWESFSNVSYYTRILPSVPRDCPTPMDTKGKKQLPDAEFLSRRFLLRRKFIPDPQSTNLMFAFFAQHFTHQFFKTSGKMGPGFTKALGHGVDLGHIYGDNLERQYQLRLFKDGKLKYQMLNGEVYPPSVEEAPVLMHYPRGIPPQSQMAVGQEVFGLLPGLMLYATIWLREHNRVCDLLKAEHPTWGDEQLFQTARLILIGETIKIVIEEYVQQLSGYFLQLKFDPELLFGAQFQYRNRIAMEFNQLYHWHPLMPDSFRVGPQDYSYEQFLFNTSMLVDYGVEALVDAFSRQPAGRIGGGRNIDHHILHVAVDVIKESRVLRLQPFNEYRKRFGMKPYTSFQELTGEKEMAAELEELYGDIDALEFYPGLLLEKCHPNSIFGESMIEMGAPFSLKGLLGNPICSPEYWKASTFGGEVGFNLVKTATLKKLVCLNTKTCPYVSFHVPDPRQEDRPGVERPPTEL
Description: The peroxidase activity is assayed colorimetrically by monitoring the appearance of oxidised N,N,N',N'-tetramethyl-p-phenylenediamine (TMPD) at 590 nm.

| Structure (SMILES) | IC50 [µM] |
| --- | --- |
| O=c1nc(-c2ccccc2)c(-c2ccccc2)nn1Cc1nnc(Nc2ccc([N+](=O)[O-])cc2)o1 [2-((5-(4-Nitrophenylamino)-1,3,4-oxadiazol-2-yl)methyl)-5,6-diphenyl-1,2,4-triazin-3(2H)-one (3e)] | 62.4 |
| O=c1nc(-c2ccccc2)c(-c2ccccc2)nn1Cc1nnc(Nc2ccc([N+](=O)[O-])cc2)s1 [2-((5-(4-Nitrophenylamino)-1,3,4-thiadiazol-2-yl)methyl)-5,6-diphenyl-1,2,4-triazin-3(2H)-one (4e)] | 63.2 |
| COc1ccc(Nc2nnc(Cn3nc(-c4ccccc4)c(-c4ccccc4)nc3=O)s2)cc1 [2-((5-(4-Methoxyphenylamino)-1,3,4-thiadiazol-2-yl)methyl)-5,6-diphenyl-1,2,4-triazin-3(2H)-one (4c)] | 60.1 |
| O=c1nc(-c2ccccc2)c(-c2ccccc2)nn1Cc1nnc(Nc2ccc(Cl)cc2)o1 [2-((5-(4-Chlorophenylamino)-1,3,4-oxadiazol-2-yl)methyl)-5,6-diphenyl-1,2,4-triazin-3(2H)-one (3d)] | 64.5 |
| COc1ccc(Nc2nnc(Cn3nc(-c4ccccc4)c(-c4ccccc4)nc3=O)o2)cc1 [2-((5-(4-Methoxyphenylamino)-1,3,4-oxadiazol-2-yl)methyl)-5,6-diphenyl-1,2,4-triazin-3(2H)-one (3c)] | 60.5 |
| O=c1nc(-c2ccccc2)c(-c2ccccc2)nn1Cc1nnc(Nc2ccc(Cl)cc2)s1 [2-((5-(4-Chlorophenylamino)-1,3,4-thiadiazol-2-yl)methyl)-5,6-diphenyl-1,2,4-triazin-3(2H)-one (4d)] | 62.2 |
